The source of these data is patent US6713475B2, “Tricyclic benzodiazepines as vasopressin receptor antagonists” (Ortho-McNeil Pharmaceutical, Inc., priority 1999, dated 2004).

One experiment addresses V2 (Homo sapiens, UniProt P30518). Put plainly: In vitro recombinant vasopressin receptor binding assay (V2 Bdg), displacement of 3H-arginine vasopressin. More on the design: expressed in transfected cells; host or cells: HEK-293. To be noted: for IC50: membrane with cloned human V-2 receptor (HEK-293); for V2 Bdg % inh: 0.1 uM, printed in parentheses in place of IC50. In a few lines:
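Displacement of ³H-vasopressin from membranes of HEK-293 cells bearing cloned human V-2 receptor, incubated with test compound one hour at room temperature. Bound label was collected on PEI-soaked GF/C filters, washed with cold saline/0.05% Tween 20, and counted by scintillation.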
On the technique in general: In a radioligand displacement assay an active substance lowers the binding of a labelled ligand.

A further experiment addresses T1, human V-1 receptor (Homo sapiens, UniProt P37288).
T1 construct: expressed in transfected cells; host or cells: HEK-293
Briefly: In vitro recombinant vasopressin receptor binding assay (V1 Bdg), displacement of 3H-arginine vasopressin. To be noted: for inhibition at 0.1 µM: read-out: V1 Bdg (% inh, 0.1 uM); for V1 Bdg % inh: 1 uM. On the procedure:
In vitro Recombinant Vasopressin Receptor Binding Assay
Compounds were assessed for their ability to displace ^3H-arginine vasopressin from the human V-1 or V-2 receptor in HEK-293 cells. Assay buffer is 50 mM Tris-Cl, 5 mM MgCl2, 0.1% BSA (pH 7.5) containing 5 ug/ml of aprotinin, leupeptin, pepstatin, 50 ug/ml bacitracin, and 1 mM Pefabloc. ^3H-vasopressin is ^3H-arginine-8-vasopressin (68.5 Ci/mmol, final concentration in assay is 0.65-0.75 nM). Into wells of 96-well round bottom polypropylene plates were added buffer, test compound, membrane (containing cloned human V-1 or V-2 receptor), and ^3H-vasopressin. The reaction plates were allowed to sit at room temperature for one hour. The samples were filtered through Unifilter GF/C plates (presoaked in 0.3 polyethyleneimine). The plates were washed 5 times with cold physiological saline containing 0.05% Tween 20. After drying, the bottom of the filter plates were sealed and 0.025 ml of Microscint-20 was added to each filter. The top of the plate was sealed, and the plate was counted. Non-specific binding was determined by the addition of 1.25 uM arginine-8-vasopressin in those wells.

Broadly, the IC50 is the concentration needed to halve the response being measured.

T1 sequence (P37288 whole entry): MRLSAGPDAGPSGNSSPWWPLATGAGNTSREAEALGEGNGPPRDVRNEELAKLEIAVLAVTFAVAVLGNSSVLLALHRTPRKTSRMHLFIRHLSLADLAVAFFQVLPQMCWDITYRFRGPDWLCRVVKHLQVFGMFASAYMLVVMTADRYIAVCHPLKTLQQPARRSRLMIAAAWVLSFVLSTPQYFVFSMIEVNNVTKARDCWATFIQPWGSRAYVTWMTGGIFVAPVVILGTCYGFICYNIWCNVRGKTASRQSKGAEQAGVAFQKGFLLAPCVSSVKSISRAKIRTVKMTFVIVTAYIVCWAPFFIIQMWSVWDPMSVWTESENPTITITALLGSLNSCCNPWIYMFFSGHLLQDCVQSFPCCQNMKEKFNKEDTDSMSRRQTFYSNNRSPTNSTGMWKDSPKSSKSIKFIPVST

For `Cc1ccccc1C(=O)Nc1ccc(C(=O)N2CC3COCCN3Cc3ccccc32)c(C)c1` (racemic) [Compound 27, (RS)-2-M ethyl-N-[3-methyl-4-(1,3,4,12a-tetrahydro-6H-[1,4]oxazino[4,3-a][1,4]-benzodiazepin-11(12H)-yl-carbonyl)phenyl]benzamide], the IC50 on V2 turned out to be 13 nM. The inhibition at 0.1 µM at human V-1 receptor turned out to be 7%.

On to `O=C(Nc1ccc(C(=O)N2C[C@H]3COCCN3Cc3ccccc32)c(Cl)c1)c1ccccc1-c1cccc(O)c1` [Compound 7, (S)-2-(3-Hydroxyphenyl)-N-[3-chloro-4-(1,3,4,12a-tetrahydro-6H-[1,4]oxazino[4,3-a][1,4]-benzodiazepin-11(12H)-yl-carbonyl)phenyl]benzamide], for which the IC50 on V2 amounted to 11 nM. For the same molecule, the inhibition at 0.1 µM at human V-1 receptor was 1%.

As for `O=C(Nc1ccc(C(=O)N2CC3CSCCN3Cc3cc(F)c(F)cc32)cc1)c1ccccc1-c1ccccc1` (racemic) [Compound 35, (RS)-2-Phenyl-N-[4-(8,9-difluoro-1,3,4,12a-tetrahydro-6H-[1,4]thiazino[4,3-a][1,4]-benzodiazepin-11(12H)-yl-carbonyl)phenyl]benzamide], the IC50 on V2 was 38 nM. At human V-1 receptor (10 uM, read-out: V1 Bdg % inh), the inhibition at 10 µM was determined as 15%.

Consider `COc1cc(NC(=O)c2ccccc2-c2ccccc2)ccc1C(=O)N1CC2COCCN2Cc2ccccc21` (racemic) [Compound 14, (RS)-2-Phenyl-N-[3-methoxy-4-(1,3,4,12a-tetrahydro-6H-[1,4]oxazino[4,3-a][1,4]-benzodiazepin-11(12H)-yl-carbonyl)phenyl]benzamide], for which the IC50 at V2 came to 9 nM. Besides, the inhibition at 0.1 µM at human V-1 receptor was 36%.

For the molecule `O=C(Nc1ccc(C(=O)N2CC3CSCCN3Cc3cc(Cl)ccc32)cc1)c1ccccc1-c1ccccc1` (racemic) [Compound 37, (RS)-2-Phenyl-N-[4-(8-chloro-1,3,4,12a-tetrahydro-6H-[1,4]thiazino[4,3-a][1,4]-benzodiazepin-11(12H)-yl-carbonyl)phenyl]benzamide], the IC50 at V2 came out at 22 nM. Further, the inhibition at 0.1 µM on human V-1 receptor stood at 75%.

In the case of `COc1cc(C(=O)N2CC3COCCN3Cc3ccccc32)ccc1NC(=O)c1ccccc1-c1ccccc1` (racemic) [Compound 15, (RS)-2-Phenyl-N-[2-methoxy-4-(1,3,4,12a-tetrahydro-6H-[1,4]oxazino[4,3-a][1,4]-benzodiazepin-11(12H)-yl-carbonyl)phenyl]benzamide], the IC50 at V2 was 13 nM. Also, the inhibition at 0.1 µM on human V-1 receptor was found to be 69%.

Consider `Cc1ccccc1C(=O)Nc1ccc(C(=O)N2CC3CN(C)CCN3Cc3ccccc32)cc1` (racemic) [Compound 86, (RS)-2-Methyl-N-[4-(1,3,4,12a-tetrahydro-2-methyl-6H-[1,4]pyrazino[4,3-a][1,4]-benzodiazepin-11(12H)-yl-carbonyl)phenyl]benzamide], for which the “V2 Bdg % inh” value at V2 was “(1%/0.1 uM)”. Besides, on human V-1 receptor, the “V1 Bdg % inh” value was “(33%/1 uM)”.

Take `COc1cc(NC(=O)c2ccccc2C)ccc1C(=O)N1CC2CN(C)CCN2Cc2ccccc21` (racemic) [Compound 83, (RS)-2-Methyl-N-[3-methoxy-4-(1,3,4,12a-tetrahydro-2-methyl-6H-[1,4]pyrazino[4,3-a][1,4]-benzodiazepin-11(12H)-yl-carbonyl)phenyl]benzamide]: the “V2 Bdg % inh” value on V2 is listed as “(10%/0.1 uM)”. The “V1 Bdg % inh” value at human V-1 receptor is “(44%/1 uM)”.

“(RS)-2-Methyl-3-chloro-N-[3-chloro-4-(1,3,4,12a-tetrahydro-2-methyl-6H-[1,4]pyrazino[4,3-a][1,4]-benzodiazepin-11(12H)-yl-carbonyl)phenyl]benzamide [Compound 95]”: on V2, the “V2 Bdg % inh” value is reported as “(38%/0.1 uM)”. For the same molecule, the “V1 Bdg % inh” value on human V-1 receptor is “(10%/1 uM)”.

Regarding `CN1CCN2Cc3ccccc3N(C(=O)c3ccc(NC(=O)c4cccc(Cl)c4Cl)cc3Cl)CC2C1` (racemic) [Compound 97, (RS)-2,3-Dichloro-N-[3-chloro-4-(1,3,4,12a-tetrahydro-2-methyl-6H-[1,4]pyrazino[4,3-a][1,4]-benzodiazepin-11(12H)-yl-carbonyl)phenyl]benzamide], on V2, the “V2 Bdg % inh” value is given as “(9%/0.1 uM)”. Besides, the “V1 Bdg % inh” value at human V-1 receptor is reported as “(21%/1 uM)”.

As to `Cc1ccccc1C(=O)Nc1ccc(C(=O)N2CC3COCCN3Cc3ccccc32)cc1` (racemic) [Compound 26, (RS)-2-Methyl-N-[4-(1,3,4,12a-tetrahydro-6H-[1,4]oxazino[4,3-a][1,4]-benzodiazepin-11(12H)-yl-carbonyl)phenyl]benzamide], the “V2 Bdg % inh” value at V2 was “(65%/0.1 uM)”. Moreover, the “V1 Bdg (% inh, 0.1 uM)” value on human V-1 receptor was 58%.

Regarding `CN(C)c1cc(NC(=O)c2ccccc2-c2ccccc2)ccc1C(=O)N1C[C@H]2CSCCN2Cc2ccccc21` [Compound 46, (S)-2-Phenyl-N-[3-dimethylamino-4-(1,3,4,12a-tetrahydro-6H-[1,4]thiazino[4,3-a][1,4]-benzodiazepin-11(12H)-yl-carbonyl)phenyl]benzamide], the IC50 on V2 is 47 nM. Moreover, the inhibition at 0.1 µM on human V-1 receptor was 8%.

With `Cc1ccc2c(c1)CN1CCSCC1CN2C(=O)c1ccc(NC(=O)c2ccccc2-c2ccccc2)cc1` (racemic) [Compound 36, (RS)-2-Phenyl-N-[4-(8-methyl-1,3,4,12a-tetrahydro-6H-[1,4]thiazino[4,3-a][1,4]-benzodiazepin-11(12H)-yl-carbonyl)phenyl]benzamide], the half-inhibitory concentration (IC50) at V2 is 18 nM. Moreover, at human V-1 receptor, the inhibition at 0.1 µM came to 76%.

Take `Cc1cc(C(=O)N2CC3CN(C)CCN3Cc3ccccc32)ccc1NC(=O)c1ccccc1-c1ccccc1` (racemic) [Compound 78, (RS)-2-Phenyl-N-[2-methyl-4-(1,3,4,12a-tetrahydro-2-methyl-6H-[1,4]pyrazino[4,3-a][1,4]-benzodiazepin-11(12H)-yl-carbonyl)phenyl]benzamide]: the “V2 Bdg % inh” value at V2 is “(5%/0.1 uM)”. At human V-1 receptor, the “V1 Bdg % inh” value was “(2%/1 uM)”.

On to `Cc1ccccc1C(=O)Nc1c(C)cc(C(=O)N2CC3CN(C)CCN3Cc3ccccc32)cc1C` (racemic) [Compound 80, (RS)-2-Methyl-N-[2,6-dimethyl-4-(1,3,4,12a-tetrahydro-2-methyl-6H-[1,4]pyrazino[4,3-a][1,4]-benzodiazepin-11(12H)-yl-carbonyl)phenyl]benzamide], for which the “V2 Bdg % inh” value on V2 is “(6%/0.1 uM)”. For the same molecule, at human V-1 receptor, the “V1 Bdg % inh” value is reported as “(19%/1 uM)”.

As for `Cc1ccc(-c2ccccc2C(=O)Nc2ccc(C(=O)N3CC4COCCN4Cc4ccccc43)c(Cl)c2)cc1` (racemic) [Compound 25, (RS)-2-(4-Methyl-phenyl)-N-[3-chloro-4-(1,3,4,12a-tetrahydro-6H-[1,4]oxazino[4,3-a][1,4]-benzodiazepin-11(12H)-yl-carbonyl)phenyl]benzamide], the IC50 at V2 stood at 12 nM. On human V-1 receptor, the inhibition at 0.1 µM is 60%.

On to `CN1CCN2Cc3ccccc3N(C(=O)c3ccc(NC(=O)c4cc(F)c(F)c(F)c4F)cc3Cl)CC2C1` (racemic) [Compound 93, (RS)-2,3,4,5-Tetrafluoro-N-[3-chloro-4-(1,3,4,12a-tetrahydro-2-methyl-6H-(1,4]pyrazino[4,3-a][1,4]-benzodiazepin-11(12H)-yl-carbonyl)phenyl]benzamide], for which, on V2, the “V2 Bdg % inh” value is on record as “(24%/0.1 uM)”. Further, the “V1 Bdg % inh” value on human V-1 receptor was “(49%/1 uM)”.

As to `COc1cccc(-c2ccccc2C(=O)Nc2ccc(C(=O)N3CC4CN(C)CCN4Cc4ccccc43)c(Cl)c2)c1` (racemic) [Compound 68, (RS)-2-(3-Methoxy-phenyl)-N-[3-chloro-4-(1,3,4,12a-tetrahydro-2-methyl-6H-[1,4]pyrazino[4,3-a][1,4]-benzodiazepin-11(12H)-yl-carbonyl)phenyl]benzamide], the “V2 Bdg % inh” value at V2 is “(37%/0.1 uM)”. Further, at human V-1 receptor, the “V1 Bdg % inh” value was “(7%/1 uM)”.

Consider “(RS)-2-(2-Fluoro-phenyl)-N-[4-(1,3,4,12a-tetrahydro-6H-[1,4]thiazino[4,3-a][1,4]-benzodiazepin-11(12H)-yl-carbonyl)phenyl]benzamide [Compound 45]”, for which the “V2 Bdg % inh” value at V2 is recorded as “(69%/0.1 uM)”. Besides, at human V-1 receptor, the “V1 Bdg (% inh, 0.1 uM)” value was 15%.

In the case of `Cc1c(I)cccc1C(=O)Nc1ccc(C(=O)N2CC3CSCCN3Cc3ccccc32)c(Cl)c1` (racemic) [Compound 44, (RS)-2-Methyl-3-iodo-N-[3-chloro-4-(1,3,4,12a-tetrahydro-6H-[1,4]thiazino[4,3-a][1,4]-benzodiazepin-11(12H)-yl-carbonyl)phenyl]benzamide], the “V2 Bdg % inh” value on V2 is reported as “(43%/0.1 uM)”. Besides, at human V-1 receptor, the “V1 Bdg (% inh, 0.1 uM)” value is 2%.

As for `Cc1ccccc1C(=O)Nc1ccc(C(=O)N2CC3COCCN3Cc3ccccc32)c(Cl)c1` (racemic) [Compound 24, (RS)-2-Methyl-N-[3-chloro-4-(1,3,4,12a-tetrahydro-6H-[1,4]oxazino[4,3-a][1,4]-benzodiazepin-11(12H)-yl-carbonyl)phenyl]benzamide], on V2, the IC50 worked out at 16 nM. Further, the inhibition at 0.1 µM at human V-1 receptor amounted to 34%.
